Laboratory results from article PMC4511006 (PLoS ONE, 2015).
Several values for one entry are separate records, joined by “and”; a condition that tells them apart may be missing. Equal values may be shown once. Ends that are not written are not given here.

Tests used:
[1] = biological target: T1, C1 complex (C1s bound to C1q) (Homo sapiens, UniProt P02745+P02746+P02747); assay: Displacement (competition ELISA) assay of C1s from C1; type: binding; conditions: C1 0.05μg; CP from 0.145μM, PA from 1.45μM (10-fold molar excess)
T1 construct: partially purified C1 complex was added to wells at a constant amount
T1 sequence (P02745 23-245): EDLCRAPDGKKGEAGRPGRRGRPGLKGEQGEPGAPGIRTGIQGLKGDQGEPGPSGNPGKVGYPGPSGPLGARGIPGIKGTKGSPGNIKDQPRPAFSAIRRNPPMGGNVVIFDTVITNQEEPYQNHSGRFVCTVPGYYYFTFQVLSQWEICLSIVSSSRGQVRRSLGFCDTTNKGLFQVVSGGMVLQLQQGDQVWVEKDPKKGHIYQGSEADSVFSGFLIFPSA
T1 sequence (P02746 28-253): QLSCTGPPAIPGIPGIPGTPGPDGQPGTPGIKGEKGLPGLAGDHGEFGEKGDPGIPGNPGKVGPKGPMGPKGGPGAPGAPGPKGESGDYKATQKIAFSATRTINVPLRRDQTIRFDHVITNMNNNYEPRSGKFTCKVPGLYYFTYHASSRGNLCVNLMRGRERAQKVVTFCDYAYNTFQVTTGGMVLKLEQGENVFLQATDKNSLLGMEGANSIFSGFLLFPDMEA
T1 sequence (P02747 29-245): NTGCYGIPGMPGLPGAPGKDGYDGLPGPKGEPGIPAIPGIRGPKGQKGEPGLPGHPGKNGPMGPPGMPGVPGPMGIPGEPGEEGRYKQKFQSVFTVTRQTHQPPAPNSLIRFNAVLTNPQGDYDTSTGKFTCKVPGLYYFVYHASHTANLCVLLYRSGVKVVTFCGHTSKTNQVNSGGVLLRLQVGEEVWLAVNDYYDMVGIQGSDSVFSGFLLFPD
Description: This was performed similarly to the competitive binding assay described by Hair et al., 2010 [8], with the following differences. Plates were coated with monoclonal antibody to C1q (Quidel) at 1:1000 overnight. In blocking buffer containing 2mM CaC1_2, partially purified C1 complex was added to wells at a constant amount (0.05μg) with decreasing amounts of either CP or PA, starting with concentrations for CP at 0.145μM and 1.45μM for PA. Detection of C1q and C1s was confirmed as described by Hair et al., 2010 [8].

[2] = system: classical pathway complement activity in factor B-depleted human serum; assay: Hemolysis assay using factor-B depleted serum and antibody-sensitized sheep erythrocytes; type: biochemical; conditions: 0.77mM peptide in factor B-depleted serum; triplicate, mean; standardized to water or DMSO
Description: (§1) Soluble peptides were dissolved in water whereas insoluble peptides were reconstituted in DMSO. Results were standardized to water or DMSO, as appropriate.

Solubility in water = type: physicochemical
Description: as §1

intact C1q = biological target: intact C1q; design: method as in PMID 22906481; conditions: SPR; cited from earlier work
complement activation = conditions: Wistar rats, delivered IV; cited from earlier work
From the text: However, a serious limitation to these peptide analogs was their lack of solubility in aqueous solution. Given the aqueous solubility of PA-dPEG24, we set out to determine their efficacy in vivo.

C1q = biological target: T2, C1q (Homo sapiens, UniProt P02745+P02746+P02747); assay: Cross-linking of biotinylated PA to C1q with BS3, SDS-PAGE/western blot; type: binding; conditions: C1q:biotinylated PA 1:25, BS3 20μM
T2 construct: Purified C1q (1μg) was added to wells
T2 sequence (P02745 23-245): as the sequence (P02745 23-245) above
T2 sequence (P02746 28-253): as the sequence (P02746 28-253) above
T2 sequence (P02747 29-245): as the sequence (P02747 29-245) above
Description: Purified C1q and biotinylated PA, at a ratio of 1:25, were incubated in conjugation buffer (0.1M Na2HPO4, 0.15M NaCl, pH 8.0) at room temperature for 2.5h. The crosslinker BS^3 (Bis(sulfosuccinimidlyl) suberate, Pierce) was added to a final concentration of 20μM and the mixture was incubated for 30 min. The reaction was quenched with 1M Tris-HCl (pH 7.5) to a final concentration of […] for 15 min. Reactions were analyzed via SDS-PAGE (NU-PAGE Bis/Tris 4–12% gradient gel) and western blot using a 1:1500 dilution of streptavidin IR 680 (LiCor) for 1h, 1:2000 dilution of goat anti-C1q IgG (CompTech) for 1h and 1:10,000 dilution of donkey anti-goat IgG IR 800 (Licor) for 1h. Gels were analyzed on an Odyssey Infrared Imaging System (Licor) and identical gels were visualized with bio-safe Coomassie stain (Bio-Rad) to confirm total protein content.

ficolin L (ficolin-2) = ficolin L (ficolin-2) (Homo sapiens, UniProt Q15485); assay: ELISA, biotinylated PA binding to ficolin L; conditions: ficolin adsorbed at 10μg/mL, 0.4M NaCl in blocking buffer, compared with C1q
Sequence of ficolin L (ficolin-2) (Q15485 26-313): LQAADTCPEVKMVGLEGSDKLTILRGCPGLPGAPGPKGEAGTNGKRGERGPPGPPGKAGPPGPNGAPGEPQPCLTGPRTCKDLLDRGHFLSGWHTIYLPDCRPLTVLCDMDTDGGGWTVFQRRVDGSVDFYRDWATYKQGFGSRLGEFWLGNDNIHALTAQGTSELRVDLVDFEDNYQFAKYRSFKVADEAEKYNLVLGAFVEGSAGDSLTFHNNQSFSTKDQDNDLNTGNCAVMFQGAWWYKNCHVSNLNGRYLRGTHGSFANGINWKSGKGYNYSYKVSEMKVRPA
Description: (§2) Wild-type recombinant ficolins L (ficolin-2), H (ficolin-3), M (ficolin-1) were adsorbed to a microtiter plate at 10μg/mL. C1q (25nM) and BSA (30μg/mL) were immobilized as controls. Plates were blocked with 3% BSA/PBST for 2h. Biotinylated PA was added at various concentrations in blocking buffer containing 0.4M NaCl (to reduce nonspecific binding) and incubated for 1h at room temperature. Following washing, wells were probed neutravidin-HRP (1:4000) in blocking buffer for 1h and developed as described above. Absorbance values from wells not incubated with biotinylated PA were subtracted as background.

ficolin H (ficolin-3) = ficolin H (ficolin-3) (Homo sapiens, UniProt O75636); assay: ELISA, biotinylated PA binding to ficolin H; conditions: ficolin adsorbed at 10μg/mL, 0.4M NaCl in blocking buffer, compared with C1q
Sequence of ficolin H (ficolin-3) (O75636 24-299): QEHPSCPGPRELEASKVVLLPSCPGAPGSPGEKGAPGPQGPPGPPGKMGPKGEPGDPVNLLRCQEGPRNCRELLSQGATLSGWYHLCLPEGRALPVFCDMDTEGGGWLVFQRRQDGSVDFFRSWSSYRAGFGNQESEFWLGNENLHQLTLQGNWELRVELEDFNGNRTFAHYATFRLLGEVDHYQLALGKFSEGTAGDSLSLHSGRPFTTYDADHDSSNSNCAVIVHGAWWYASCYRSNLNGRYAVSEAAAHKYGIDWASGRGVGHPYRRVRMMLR
Description: as §2

ficolin M (ficolin-1) = ficolin M (ficolin-1) (Homo sapiens, UniProt O00602); assay: ELISA, biotinylated PA binding to ficolin M; conditions: ficolin adsorbed at 10μg/mL, 0.4M NaCl in blocking buffer, compared with C1q
Sequence of ficolin M (ficolin-1) (O00602 30-326): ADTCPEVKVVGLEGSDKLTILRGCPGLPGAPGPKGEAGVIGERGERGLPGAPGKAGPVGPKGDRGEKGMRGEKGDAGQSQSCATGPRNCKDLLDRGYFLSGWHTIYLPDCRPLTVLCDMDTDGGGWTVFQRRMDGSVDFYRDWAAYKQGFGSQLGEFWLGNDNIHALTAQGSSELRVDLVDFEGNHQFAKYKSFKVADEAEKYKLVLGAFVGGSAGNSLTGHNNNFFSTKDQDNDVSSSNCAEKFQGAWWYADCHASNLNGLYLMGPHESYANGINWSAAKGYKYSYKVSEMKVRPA
Description: as §2

Question: For `CC[C@H](C)[C@H](N)C(=O)N[C@@H](C)C(=O)N[C@@H](CC(C)C)C(=O)N[C@H](C(=O)N[C@@H](CC(C)C)C(=O)N[C@@H](CCC(=O)O)C(=O)N1CCC[C@H]1C(=O)N[C@H](C(=O)N[C@@H](CS)C(=O)N[C@@H](CS)C(=O)N[C@@H](CCC(N)=O)C(=O)N[C@@H](CCC(=O)O)C(=O)N[C@@H](CCCNC(=N)N)C(=O)N[C@@H](C)C(=O)N[C@@H](C)C(=O)O)[C@@H](C)CC)[C@@H](C)CC` [PA], which “displacement of C1s from C1q” value [1] is on record?
Answer: did not demonstrate competitive displacement of C1s from C1q

Question: What about the “Hemolysis (%)” value [2] of the same compound?
Answer: 39.49%

Question: And the “solubility in water / aqueous solutions” value (Solubility in water)?
Answer: lack of solubility in aqueous solutions

Question: And the Kd (intact C1q)?
Answer: 0.0333 µM and 0.033 µM

Question: And the “inhibition of complement activation in vivo” value (complement activation)?
Answer: able to inhibit complement activation in Wistar rats

Question: With “EALILEPICCQERAA [PA-I1E, glutamic acid substitution peptide of PA]” as the compound, how does the “Hemolysis (%)” value [2] read?
Answer: 89.27%

Question: With “IAEILEPICCQERAA [PA-L3E, glutamic acid substitution peptide of PA]” as the compound, how does the “Hemolysis (%)” value [2] read?
Answer: 100.27%

Question: For “IALELEPICCQERAA [PA-I4E, glutamic acid substitution peptide of PA]”, which “Hemolysis (%)” value [2] is on record?
Answer: 92.07%

Question: Which “Hemolysis (%)” value [2] does the source give for “IALIEEPICCQERAA [PA-L5E, glutamic acid substitution peptide of PA]” here?
Answer: 94.33%

Question: For “IALILEEICCQERAA [PA-P7E, glutamic acid substitution peptide of PA]”, which “Hemolysis (%)” value [2] is on record?
Answer: 96.10%

Question: Which “Hemolysis (%)” value [2] does the source give for “IALILEPECCQERAA [PA-I8E, glutamic acid substitution peptide of PA]” here?
Answer: 95.74%

Question: With IALILEPICCEERAA [PA-Q11E] as the compound, how does the “Hemolysis (%)” value [2] read?
Answer: 65.60%

Question: Which “Hemolysis (%)” value [2] does the source give for IALILEPICCQEEAA [PA-R13E] here?
Answer: 101.99%

Question: With IALILEPICCQERAE [PA-A15E] as the compound, how does the “Hemolysis (%)” value [2] read?
Answer: 93.13%

Question: With IALILEPICCQERAR [PA-A15R] as the compound, how does the “Hemolysis (%)” value [2] read?
Answer: 44.24%

Question: Which “Hemolysis (%)” value [2] does the source give for IALILEPICCQEREA [PA-A14E] here?
Answer: 98.09%

Question: For IALILEPICCQERRA [PA-A14R], which “Hemolysis (%)” value [2] is on record?
Answer: 88.65%

Question: For IALILEPICCQRRAA [PA-E12R], which “Hemolysis (%)” value [2] is on record?
Answer: 95.83%

Question: Which “Hemolysis (%)” value [2] does the source give for IALILEPICCRERAA [PA-Q11R] here?
Answer: 90.87%

Question: With “IALILEPRCCQERAA [PA-I8R, arginine substitution peptide of PA]” as the compound, how does the “Hemolysis (%)” value [2] read?
Answer: 62.32%

Question: For “IALILERICCQERAA [PA-P7R, arginine substitution peptide of PA]”, which “Hemolysis (%)” value [2] is on record?
Answer: 89.85%

Question: With “IALILRPICCQERAA [PA-E6R, arginine substitution peptide of PA]” as the compound, how does the “Hemolysis (%)” value [2] read?
Answer: 87.59%

Question: With “IALIREPICCQERAA [PA-L5R, arginine substitution peptide of PA]” as the compound, how does the “Hemolysis (%)” value [2] read?
Answer: 93.40%

Question: For “IALRLEPICCQERAA [PA-I4R, arginine substitution peptide of PA]”, which “Hemolysis (%)” value [2] is on record?
Answer: 43.71%

Question: For “IARILEPICCQERAA [PA-L3R, arginine substitution peptide of PA]”, which “Hemolysis (%)” value [2] is on record?
Answer: 80.45%

Question: Which “Hemolysis (%)” value [2] does the source give for “IELILEPICCQERAA [PA-A2E, glutamic acid substitution peptide of PA]” here?
Answer: 92.24%

Question: Which “Hemolysis (%)” value [2] does the source give for “IRLILEPICCQERAA [PA-A2R, arginine substitution peptide of PA]” here?
Answer: 87.28%

Question: With “RALILEPICCQERAA [PA-I1R, arginine substitution peptide of PA]” as the compound, how does the “Hemolysis (%)” value [2] read?
Answer: 91.93%

Question: Which “binding to C1q chains after cross-linking” value (C1q) does the source give for “biotinylated PA: C-terminally biotinylated PA peptide (IALILEPICCQERAA-biotin; cysteine pairing not given here)” here?
Answer: can bind monomeric chains of C1q along with the dimers A-B and C-C

Question: And the “binding to ficolin L” value (ficolin L (ficolin-2))?
Answer: bound PA to the same degree as C1q

Question: What about the “binding to ficolin H” value (ficolin H (ficolin-3)) of the same compound?
Answer: bound PA to the same degree as C1q

Question: What about the “binding to ficolin M” value (ficolin M (ficolin-1)) of the same compound?
Answer: bound PA to the same degree as C1q
